Measurements published in PMC8537746, “New Pyridone-Based Derivatives as Cannabinoid Receptor Type 2 Agonists” (International Journal of Molecular Sciences, 2021).

Key:
CB2 = target: CB2; design: method as in PMID 11597467, PMID 23623258, PMID 23395112, PMID 21702498, PMID 17004710; conditions: Figure 1; cited from earlier work
[1] = target: T1, human cannabinoid receptor type II (CB2R) (Homo sapiens, UniProt P34972); assay: Human CB2R cAMP agonist cellular functional assay (Eurofins Cerep); type: cell-based; conditions: for % CB2R Agonist Response: 10 µM, CHO cells expressing hCB2R, percentage relative to control (100 nM WIN55212-2), rounded mean of two assays; for EC50: EC50, intracellular cAMP, CHO-hCB2R
T1 construct: host or cells: CHO cells
T1 sequence (P34972 whole entry): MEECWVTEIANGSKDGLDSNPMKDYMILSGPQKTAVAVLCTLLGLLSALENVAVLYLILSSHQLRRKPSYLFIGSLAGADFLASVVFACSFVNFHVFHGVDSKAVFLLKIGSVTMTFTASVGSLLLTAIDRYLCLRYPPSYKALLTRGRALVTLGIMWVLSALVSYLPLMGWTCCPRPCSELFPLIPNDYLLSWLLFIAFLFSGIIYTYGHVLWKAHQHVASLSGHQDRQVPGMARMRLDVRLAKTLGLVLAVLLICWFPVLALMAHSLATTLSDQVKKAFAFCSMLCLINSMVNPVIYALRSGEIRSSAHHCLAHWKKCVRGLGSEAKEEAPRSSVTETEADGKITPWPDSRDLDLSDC
Protocol: Functional evaluation was carried out by Eurofins Cerep service assay: CB2 Human Cannabinoid GPCR Cell Based Agonist cAMP Assay. CHO cells stably expressing hCB2R (Eurofins Cerep) are suspended in HBSS buffer (Invitrogen) complemented with 20 mM HEPES (pH 7.4), then distributed in microplates at a density of 7.5 × 10^3 cells/well in the presence of either of the following: HBSS (basal control), the reference agonist at 100 nM (stimulated control) or various concentrations (EC50 determination), or the test compounds. Thereafter, the adenylyl cyclase activator NKH 477 is added at a final concentration of 3 μM. Following 10 min incubation at 37 °C, the cells are lysed, and the fluorescence acceptor (D2-labeled cAMP) and fluorescence donor (anti-cAMP antibody labeled with europium cryptate) are added. After 60 min at room temperature, the fluorescence transfer is measured at λex = 337 nm and λem = 620 and 665 nm using a microplate reader (Envison, Perkin Elmer). The cAMP concentration is determined by dividing the signal measured at 665 nm by that measured at 620 nm (ratio). The results are expressed as a percent of the control response to 100 nM WIN55212-2. The standard reference agonist is WIN 55212-2, which is tested in each experiment at several concentrations to generate a concentration-response curve from which its EC50 value is calculated.

HepG2 cells = assay: Neutral red uptake cell viability assay, HepG2; conditions: for IC50: Homo sapiens, HepG2, 72 h, read-out: IC50 HepG2
Protocol: (§1) Two different cell lines were used: HepG2 as a model of hepatic tissue; and HL-60 cells as a model of blood cells. Low levels of expression of CBR exists in normal liver however, several pathological conditions have shown high upregulation of hepatic CB2R [28].
(§2) Cell lines were grown in culture media supplemented with 10% fetal bovine serum (FBS), 100 U/mL of penicillin, 100 μg/mL of streptomycin and 1% of non-essential aminoacids. Cells between passage 5 to 10 were used in experiments. Dulbecco’s Modified Eagle Medium (DMEM) was used for HepG2 cells and Roswell Park Memorial Institute (RPMI) was used for HL-60 cells. […] All cellular lines used were provided by Dr. Mario Faúndez, Laboratory of Molecular Pharmacology, Faculty of Chemistry and Pharmacy, Pontificia Universidad Católica de Chile.
(§3) The effect of compounds in cell viability was determined by Neutral Red uptake assay. Cells were seeded in 100 μL of media at a density of 10^4 cells/well in 96-well microtiter plates. Solutions of compounds were previously prepared in DMSO and 1 μL of the corresponding solution was added to each well. The final volume of each well was adjusted to 200 μL. After 72 h of incubation, culture media was removed and 100 μL of 10 μg/mL neutral red solution prepared in culture media was added to each well and incubated for 3 h. Then, media was aspirated, the plate was washed three times with PBS 1X and 100 μL of neutral red distain solution (50:49:1 ethanol:water:glacial acetic acid) was added. The plate was placed for 15 min in a shaker and fluorescence was measured using Cytation 5 apparatus (Biotek, Winooski, VT, USA) at 530/645 nm excitation/emission wavelengths.

HL-60 cells = assay: Neutral red uptake cell viability assay, HL-60; conditions: Homo sapiens, HL-60, 72 h, read-out: IC50 HL-60
Protocol: as §1, §2, §3

[2] = Neutral red uptake cell viability assay, HL-60; conditions: human
Protocol: as §1, §2, §3

Compound | melting point [°C] | % CB2R Agonist Response [1] [%] | further results
CCOC(=O)CC#N [Compound 1] |  |  | Ki (CB2): 0.2 nM
N#CCC(=O)NN [Compound 2] |  |  | Ki (CB2): 14 nM
Cc1cc(C)n(C(=O)CC#N)n1 [Compound 3] | 119 to 121 |  | Ki (CB2): 0.6 nM
COc1ccc2c(=O)c(C(=O)NC3CCCCC3)cn(Cc3ccc(F)cc3)c2n1 [Compound 4] |  |  | Ki (CB2): 11 nM
O=C(NC1CCCCCC1)c1cn2c3c(cccc3c1=O)OCC2c1ccccc1 (stereo not drawn) [Compound 5] |  |  | Ki (CB2): 0.81 nM
Cc1cc(C)n(-c2ccccc2)c(=O)c1C(=O)Nc1nc2ccccc2s1 [Compound 7a, N-(benzo[d]thiazol-2-yl)-4,6-dimethyl-2-oxo-1-phenyl-1,2-dihydropyridine-3-carboxamide] | 163 to 165 |  | 
Cc1cc(C)n(-c2ccccc2)c(=O)c1C(=O)Nc1nc2ccccc2[nH]1 [Compound 7b, N-(1H-benzo[d]imidazol-2-yl)-4,6-dimethyl-2-oxo-1-phenyl-1,2-dihydropyridine-3-carboxamide] | 177 to 179 | 8 | IC50 (HepG2 cells): > 200000 nM; IC50 (HL-60 cells): > 100000 nM
Cc1cc(C)n(-c2ccccc2)c(=O)c1C(=O)Nc1nc2ccccc2o1 [Compound 7c, N-(benzo[d]oxazol-2-yl)-4,6-dimethyl-2-oxo-1-phenyl-1,2-dihydropyridine-3-carboxamide] | 228 to 230 | 13 | 
Cc1ccc(-n2c(C)cc(C)c(C(=O)Nc3nc4ccccc4o3)c2=O)cc1 [Compound 7d, N-(benzo[d]oxazol-2-yl)-4,6-dimethyl-2-oxo-1-(4-methylphenyl)-1,2-dihydropyridine-3-carboxamide] |  | 0 | 
Cc1ccc(-n2c(C)cc(C)c(C(=O)Nc3nc4ccccc4[nH]3)c2=O)cc1 [Compound 7e, N-(1H-benzo[d]imidazol-2-yl)-4,6-dimethyl-2-oxo-1-(4-methylphenyl)-1,2-dihydropyridine-3-carboxamide] | 198 to 200 | 0 | 
Cc1cc(C)n(-c2ccc(O)cc2)c(=O)c1C(=O)Nc1nc2ccccc2[nH]1 [Compound 7f, N-(1H-benzo[d]imidazol-2-yl)-1-(4-hydroxyphenyl)-4,6-dimethyl-2-oxo-1,2-dihydropyridine-3-carboxamide] | 176 to 178 | 13 | 
Cc1cc(C)n(-c2ccccc2)c(=O)c1C(=O)NC1CCCCC1 [Compound 8a, N-cyclohexyl-4,6-dimethyl-2-oxo-1-phenyl-1,2-dihydropyridine-3-carboxamide] | 139 to 140 | 12 | 
Cc1cc(C)n(-c2ccccc2)c(=O)c1C(=O)NC1CCCCCC1 [Compound 8b, N-cycloheptyl-4,6-dimethyl-2-oxo-1-phenyl-1,2-dihydropyridine-3-carboxamide] | 138 to 140 |  | IC50 (HepG2 cells): > 200000 nM; IC50 (HL-60 cells): > 100000 nM
Cc1cc(C)n(-c2ccccc2)c(=O)c1C(=O)NC12CC3CC(CC(C3)C1)C2 [Compound 8c, N-(adamantan-1-yl)-4,6-dimethyl-2-oxo-1-phenyl-1,2-dihydropyridine-3-carboxamide] | 164 to 165 |  | IC50 (HepG2 cells): > 200000 nM; IC50 (HL-60 cells): > 100000 nM
Cc1ccc(-n2c(C)cc(C)c(C(=O)NC34CC5CC(CC(C5)C3)C4)c2=O)cc1 [Compound 8d, N-(adamantan-1-yl)-4,6-dimethyl-2-oxo-1-(4-methylphenyl)-1,2-dihydropyridine-3-carboxamide] | 154 to 155 |  | EC50 [1]: 112 nM; EC50 ([1]; n = 3): 110 nM; IC50 (HepG2 cells): > 200000 nM; effect on cell viability in HepG2 cells (HepG2 cells; concentrations as high as 200 μM, compared to control): did not show significant effect on cell viability; viability at 72 h, 200 µM [2]: 10%; IC50 (HL-60 cells): > 100000 nM
Cc1ccc(-n2c(C)cc(C)c(C(=O)NC3CCCCCC3)c2=O)cc1 [Compound 8e, N-cycloheptyl-4,6-dimethyl-2-oxo-(4-methylphenyl)-1,2-dihydropyridine-3-carboxamide] | 238 to 240 | 0 | 
Cc1cc(C)n(-c2ccc(O)cc2)c(=O)c1C(=O)NC1CCCCCC1 [Compound 8f, N-cycloheptyl-1-(4-hydroxyphenyl)-4,6-dimethyl-2-oxo-1,2-dihydropyridine-3-carboxamide] | 232 to 233 | 0 | 
Cc1cc(C)n(-c2ccc(O)cc2)c(=O)c1C(=O)NC1CCCCC1 [Compound 8g, N-cyclohexyl-1-(4-hydroxyphenyl)-4,6-dimethyl-2-oxo-1,2-dihydropyridine-3-carboxamide] | 139 to 140 | 4 | 
